# Data from US7465814B2, “Sulfonate compound and fluorescent probe using the same” (priority 2003, dated 2008).
# Read-outs that look alike come from different tables or passages of the source.
# How the values were obtained:
# [1] = Reactivity with superoxide and glutathione (FIG. 4); format: biochemical; conditions: same conditions as 1-3 Superoxide-selectivity (2)
# Description: (§1) Moreover, in other conditions than those of the above-described tests, reactivity of all of the compounds 1a to 1d with H2O2, other various kinds of nucleophilic agents, reducing agents and the like also was tested, respectively. More specifically, fluorescent responses of 1a to 1d with respect to a XO-HPX system, a XO-HPX-SOD system, H2O2, ascorbic acid, 1,4-hydroquinone, propylamine, diethylamine, glucose, esterase, a cytochrome P450 reductase+NADPH system, and a diaphorase+NADH system were measured, respectively. Operational processes thereof will be described below. Firstly, 1a to 1d and the above-described reagents were dissolved in HEPES of 10 mM having a pH of 7.4 so as to prepare solutions, respectively. Next, a 96 wellmicroplate was provided, where any of the solutions of 1a to 1d (25 μM, 170 μL) was poured into each of the wells, and furthermore, 30 μL of a blank solution or 30 μL of the solution of the reagent to be reacted therewith was added thereto. Final concentrations of the solutions in the wells were adjusted so that concentrations of the solutions of 1a to 1d respectively could be 21.3 μM, that of XO could be 13.1 mU/mL, those of HPX, H2O2, ascorbic acid, 1,4-hydroquinone, propylamine, diethylamine, glucose, NADPH and NADH respectively could be 50 μM, that of cytochrome P450 reductase could be 68 mU/mL, that of diaphorase could be 65 mU/mL, and that of esterase could be 0.5 U/mL, respectively. Then, after they reacted in the wells at 37° C. for 10 minutes, fluorescent responses were measured respectively. Fluorescence intensity measurement was conducted by using an ETC-272 Peltier thermostatted single cell holder (trade name) manufactured by JASCO Corporation or a SpectraMax GeminiEM fluorescence plate reader (trade name) manufactured by Molecular Devices Corporation provided with a FP-750 spectrofluorometer (trade name) manufactured by JASCO Corporation, and by setting excitation wavelengths and emission wavelengths so that those of 1a, 1b and 1c respectively could be 485 nm and 515 nm, and those of 1d respectively could be 511 nm and 540 nm.
# The reactivity of each of the compounds 1d, 5a, 6a, 7 and 8a with respect to superoxide and glutathione (GSH) that is a kind of thiol was tested under the same conditions as those of [1-3. Superoxide-selectivity (2)] in Example 1. […] A vertical axis thereof denotes a fluorescence intensity, which is represented in % of control.
# neutrophils = conditions: for cell viability after the incubation with respect to before the incubation: 37° C., 120 minutes
# Description: Moreover, a toxicity of the compound 1d with respect to the neutrophils was evaluated by estimating cell viability by a trypan blue dyeing method. More specifically, the neutrophils (1.0×10^5 cells) were incubated at 37° C. for 120 minutes in a glass test tube coated with human serum albumin, in the presence of both of the compound 1d (6.25 μM) and PMA (0.16 μM), in the presence of either of them, and in the absence of them, respectively. Then, cell viability after the incubation with respect to cell viability before the incubation was measured.
# [2] = Fluorescent response to 1,4-hydroquinone (Table 1); format: biochemical; conditions: relative fluorescence intensity, blank = 10; probe 21.3 μM, 1,4-hydroquinone 50 μM, 37° C., 10 minutes
# Description: as §1
smiles,measurement,setting,value
O=C1OC2(c3ccccc31)c1cc(F)c(OS(=O)(=O)c3ccc([N+](=O)[O-])cc3[N+](=O)[O-])c(F)c1Oc1c2cc(F)c(OS(=O)(=O)c2ccc([N+](=O)[O-])cc2[N+](=O)[O-])c1F [Compound 1d],"selectivity (specificity), superoxide versus glutathione, FIG. 4",[1],excellent superoxide-selectivity
same,cell viability after the incubation with respect to before the incubation,neutrophils; in the presence of both 1d (6.25 μM) and PMA (0.16 μM),97%
same,toxicity with respect to the neutrophils,neutrophils; incubation of 120 minutes,did not show any significant toxicity
same,cell viability after the incubation with respect to before the incubation,"neutrophils; substance only (1d 6.25 μM or PMA 0.16 μM), 1.0×10^5 neutrophils",95%
same,"fluorescent response, 1,4-hydroquinone",[2],11
